In patent publication US20040029871A1, “Pharmaceutical compounds for treating copd” (priority 2000, published 2004):

These compounds were tested against T1, human MPO (Homo sapiens, UniProt P05164) (assay: in vitro MPO assay measuring production of hypochlorus acid (HOCl)). Settings: not given.
T1 construct: purchased Planta
Assay type: biochemical
Procedure: Here we describe an in vitro MPO assay that was developed to assess inhibition of enzyme activity. Essentially the MPO assay was designed to measure the production of hypochlorus acid (HOCl), which is the key physiological product generated by the enzyme in vivo. An outline of the assay reactions is given: [drawing 5]
Compounds were preincubated with the MPO enzyme in buffer for about 15 min prior to start of reaction with H2O2. The whole reaction was carried out at room temperatutre for 10 min in a 96-well plate. […] All test concentrations were done in duplicated with at least two separate determinations n=2, unless otherwise stated. The inhibitory concentration for a compound is presentated as pIC50, which is −log IC50.

T1 sequence (P05164 279-745 limits assumed): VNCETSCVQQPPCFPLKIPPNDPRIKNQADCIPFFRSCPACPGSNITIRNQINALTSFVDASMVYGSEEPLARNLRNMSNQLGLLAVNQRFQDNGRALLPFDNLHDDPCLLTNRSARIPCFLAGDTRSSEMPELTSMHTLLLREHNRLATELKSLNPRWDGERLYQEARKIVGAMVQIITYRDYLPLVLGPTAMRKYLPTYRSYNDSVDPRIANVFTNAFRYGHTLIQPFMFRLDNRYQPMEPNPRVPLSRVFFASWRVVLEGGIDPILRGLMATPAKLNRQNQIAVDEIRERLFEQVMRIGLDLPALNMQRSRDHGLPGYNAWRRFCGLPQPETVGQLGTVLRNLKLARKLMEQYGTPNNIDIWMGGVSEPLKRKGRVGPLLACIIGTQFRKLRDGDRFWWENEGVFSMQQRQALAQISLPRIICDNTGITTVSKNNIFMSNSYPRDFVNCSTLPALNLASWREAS
T1 sequence (P05164 165-273 limits assumed): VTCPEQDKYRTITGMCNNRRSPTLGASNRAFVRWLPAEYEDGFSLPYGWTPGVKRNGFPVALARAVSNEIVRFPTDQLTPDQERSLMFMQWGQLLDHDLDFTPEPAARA

Question: How did the IC50 turn out when COc1ccc2[nH]cc(CCN)c2c1 [5-Methoxytryptamine] was run?
Answer: 631 nM

Question: How did the IC50 turn out when c1ccc2[nH]ccc2c1 [Indole] was run?
Answer: 2000 nM

Same assay, conditions: 2.5 nM purified human MPO, 100 uM H2O2, pH 6.5, 15 min preincubation, 10 min at room temperature; pIC50 = -log IC50

Question: With Nc1ccc(S(=O)(=O)Nc2nccs2)cc1 [N-1(2 thiazolyl)-sulfanilamide] as the compound, how does the “Inhibition of human MPO-HOCl production, pIC50” value read?
Answer: 6.0

Question: For COc1ccc2[nH]cc(CCO)c2c1 [5-Methoxytryptophol], which “Inhibition of human MPO-HOCl production, pIC50” value is on record?
Answer: 6.3

Same assay, conditions: human MPO

Question: How did the “relative potency as inhibitor of HOCl production by human MPO (in words)” value turn out when Nc1ccc(S(=O)(=O)c2ccc(N)cc2)cc1 [Dapsone] was run?
Answer: most potent inhibitor of the sulfones/sulfonamides tested

Same assay, conditions: read-out: Inhibition of human MPO-HOCl production, pIC50 (converted)

Question: COc1ccc2[nH]ccc2c1 [5-Methoxyindole] was tested. Which IC50 did it give?
Answer: 2510 nM

Question: With CCOC(=O)c1cccc(N)c1 [3-Aminobenzoic acid ethylester] as the compound, how does the IC50 read?
Answer: 631 nM

Question: With Nc1ccc(S(=O)(=O)Nc2ccccn2)cc1 [Sulfapyridine] as the compound, how does the IC50 read?
Answer: 2000 nM

Question: Which IC50 does the source give for Nc1ccc(S(N)(=O)=O)cc1 [Sulfanilamide] here?
Answer: 1000 nM

Question: How did the IC50 turn out when [H]/N=C(/N)NS(=O)(=O)c1ccc(N)cc1 [Sulfaguanidine] was run?
Answer: 3160 nM

Question: CN1C(C(=O)Nc2ccccn2)=C(O)c2ccccc2S1(=O)=O [Piroxicam] was tested. Which IC50 did it give?
Answer: 2510 nM

Question: Which IC50 does the source give for Cc1c[nH]c2ccccc12 [3-Methylindole] here?
Answer: 1260 nM

Question: CC(=O)Nc1ccc(S(=O)(=O)Nc2ccc([N+](=O)[O-])cc2)cc1 [Sulfanitran] was tested. Which IC50 did it give?
Answer: 7940 nM

Question: For Nc1ccc(S(=O)(=O)c2ccc(N)cc2)cc1 [Dapsone], which IC50 is on record?
Answer: 631 nM

Question: For COc1ccc2[nH]cc(CCNC(C)=O)c2c1 [Melatonin], which IC50 is on record?
Answer: 794 nM

Question: With COc1ccc2cc[nH]c2c1 [6-Methoxyindole] as the compound, how does the IC50 read?
Answer: 1580 nM

Question: For COc1cc(C=O)ccc1O [Vanillin], which IC50 is on record?
Answer: 7940 nM

Question: How did the IC50 turn out when Cc1noc(NS(=O)(=O)c2ccc(N)cc2)c1C [Sulfisoxazole] was run?
Answer: 6310 nM

Question: For N=C(N)c1ccc(N)cc1 [p-Aminobenzamidine], which IC50 is on record?
Answer: 2510 nM

Question: For Nc1ccc(S(=O)(=O)Nc2ncccn2)cc1 [Sulfadiazine], which IC50 is on record?
Answer: 6310 nM

The compounds below were run on stimulated human neutrophils (assay: functional human neutrophil assay, HOCl production by PMA-stimulated neutrophils). Settings: 2x10^6 neutrophils, PMA 1 μg/ml, 15 min preincubation, 30 min at 37C, read-out: Inhibition of HOCl production by stimulated human neutrophils, pIC50 (converted).
Assay type: cell-based
Procedure: Here we describe the use of a functional human neutrophil assay to determine the effects of MPO inhibitors on the production of HOCl. This assay detects the production of HOCl from stimulated (e.g. PMA, LPS, fMLP, zymozan) human neutrophils. Human neutrophils were purified from fresh heparinised blood by density centrifugation on Polymorphprep (Nycomed). These neutrophils were used immediately after purification. A standard reaction mixture contained the following: 2×10^6 neutrophils, 140 mM NaCl, 5 mM taurine, 0.5 mM MgCl2, 1 mM CaCl2 and 1 mg/ml glucose. Test compounds were made up in DMSO and added to cells, with a final DMSO concentration of 0.5%. Test compounds were given 15 min preincubation at 37C with neutrophils prior to the addition of the PMA stimulant (1 μg/ml). The assay was then allowed to progress for another 30 min at 37C. At the end of the incubation, supernatants were collected by centrifugation and assayed for HOCl by using the stop/development reagent as above. All compounds were tested in duplicate with at least two separate determinations n=2 from two different donors.

Question: Which IC50 does the source give for Nc1ccc(S(=O)(=O)Nc2ccccn2)cc1 [Sulfapyridine] here?
Answer: 31600 nM

Question: Nc1ccc(S(N)(=O)=O)cc1 [Sulfanilamide] was tested. Which IC50 did it give?
Answer: 15800 nM

Question: With COc1cc(NC(C)CCCN)c2ncccc2c1 (stereo not drawn) [Primaquine] as the compound, how does the IC50 read?
Answer: 12600 nM

Question: Which IC50 does the source give for Nc1ccc(S(=O)(=O)c2ccc(N)cc2)cc1 [Dapsone] here?
Answer: 20000 nM
